For 50 compounds, IC50 results are on record in ChEMBL document CHEMBL5604063, “ASAP - DENV-2 NS2B-NS3 protease fluorescence dose response” (2024).

For assay [1], the target named is T1, Genome polyprotein (dengue virus type 2, UniProt P29990). Format: functional, Thailand/16681/1984.
Assay [2] concerns the target T1, Genome polyprotein. The assay is classed as functional, Thailand/16681/1984. This is another data set of the same source.

Values joined by “and” are separate entries in the source; they are usually repeats but may differ in a detail not shown here. Equal entries are not always repeated.

T1 sequence (P29990 1346-1475 limits assumed): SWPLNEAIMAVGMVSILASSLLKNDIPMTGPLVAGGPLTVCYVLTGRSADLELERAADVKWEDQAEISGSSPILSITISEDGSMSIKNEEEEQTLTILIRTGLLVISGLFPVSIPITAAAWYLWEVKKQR
T1 sequence (P29990 1476-2093 limits assumed): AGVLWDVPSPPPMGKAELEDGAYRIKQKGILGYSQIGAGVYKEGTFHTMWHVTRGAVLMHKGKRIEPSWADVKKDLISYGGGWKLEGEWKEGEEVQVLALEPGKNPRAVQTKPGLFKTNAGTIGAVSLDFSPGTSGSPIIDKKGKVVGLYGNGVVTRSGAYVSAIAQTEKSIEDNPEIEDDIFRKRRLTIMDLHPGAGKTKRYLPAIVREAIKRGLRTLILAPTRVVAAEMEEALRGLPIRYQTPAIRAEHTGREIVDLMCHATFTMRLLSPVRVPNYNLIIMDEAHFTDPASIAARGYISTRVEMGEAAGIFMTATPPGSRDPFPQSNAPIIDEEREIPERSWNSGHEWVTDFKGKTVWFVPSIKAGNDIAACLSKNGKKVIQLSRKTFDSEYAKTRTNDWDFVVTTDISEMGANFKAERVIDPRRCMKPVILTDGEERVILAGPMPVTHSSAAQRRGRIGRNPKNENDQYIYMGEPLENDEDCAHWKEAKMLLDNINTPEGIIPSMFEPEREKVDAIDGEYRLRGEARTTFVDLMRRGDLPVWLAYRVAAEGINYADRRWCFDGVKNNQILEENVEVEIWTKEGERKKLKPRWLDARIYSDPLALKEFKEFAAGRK

What is called IC50 is the concentration that gives 50% inhibition. Read a low IC50 as greater potency in that assay. Take `O=C(O)c1ccc(-c2cc(NC(=O)c3cc(F)cc4[nH]ncc34)cc3c2CNC3)cc1`: the IC50 at Genome polyprotein [1] was 54.7 µM and 75 µM; against Genome polyprotein [2], 75.4 µM.

With `NCCc1csc2cc(C(=O)Nc3cc([C@H]4CCOC4)ccn3)ccc12`, the IC50 against Genome polyprotein [1] was above 100 µM; at Genome polyprotein [2], above 99.5 µM.

Consider `Cc1c(C(=O)Nc2ccc3c(c2)CCS3(=O)=O)cc(C2CC2)n1C`, for which the IC50 was above 100 µM against Genome polyprotein [1] and above 99.5 µM on Genome polyprotein [2].

`Cc1c(C(=O)Nc2ccc3c(c2)CCCC(=O)N3C)cc(C2CC2)n1C`: the IC50 is above 100 µM on Genome polyprotein [1] and above 99.5 µM on Genome polyprotein [2].

Consider `N#Cc1cccc(-c2nc3c(C(=O)Nc4ccc5c(c4)CNC5)cc(F)cc3[nH]2)c1`, for which the IC50 is 10.9 µM and 29.7 µM on Genome polyprotein [1]; 6.2 µM and 4.83 µM at Genome polyprotein [2].

For the compound `O=C(Nc1cc2c(c(-c3c[nH]c(=O)c(F)c3)c1)CNC2)c1cc(F)cc2[nH]ncc12`, the IC50 at Genome polyprotein [1] is 38.6 µM and 68.6 µM; against Genome polyprotein [2], 68.4 µM.

As for `COC[C@]1(c2nc3c(C(=O)Nc4ccc5c(c4)CNC5)cc(F)cc3[nH]2)CCOC1`, the figures for the concentration for half-maximal inhibition (IC50) against Genome polyprotein [1] and on Genome polyprotein [2] were above 100 µM and above 99.5 µM, respectively.

Turning to `N#Cc1c[nH]c2ccc(C(=O)Nc3ccc4c(c3)CNC4)cc12`, the IC50 against Genome polyprotein [1] was above 100 µM; on Genome polyprotein [2] it was above 99.5 µM.

Take `CC(C)Cn1cc2c(C(=O)Nc3ccc4c(c3)CNC4)cc(Cl)cc2n1`: the IC50 at Genome polyprotein [1] was above 100 µM; on Genome polyprotein [2], above 99.5 µM.

For `O=C(Nc1ccc2c(c1)CNC2)c1cc(Cl)cc2nn(C3CCOCC3)cc12`, the IC50 against Genome polyprotein [1] is above 100 µM; on Genome polyprotein [2] it was 90.2 µM.

As to `COc1cc(OC)cc([C@H]2CCN(C(=O)Nc3ccc4c(c3)CNC4)C2)c1`, the IC50 on Genome polyprotein [1] is above 100 µM; against Genome polyprotein [2], above 99.5 µM.

As for `O=C(Nc1ccc2c(c1)CNC2)c1cc(F)cc(-c2ccc3c(=O)[nH]ncc3c2)c1`, the IC50 at Genome polyprotein [1] was 36 µM and 33.9 µM; against Genome polyprotein [2], 25 µM and 22.8 µM.

`COCn1ncc2c(C(=O)Nc3ccc4c(c3)CNC4)cc(Cl)cc21`: the IC50 at Genome polyprotein [1] is above 100 µM; against Genome polyprotein [2], above 99.5 µM.

Turning to `O=C(Nc1ccc2c(c1)CNC2)c1ccc2ncsc2n1`, the IC50 is above 100 µM against Genome polyprotein [1] and above 99.5 µM at Genome polyprotein [2].

For `CC(C)n1cc(C(=O)Nc2cc(-c3cccnc3)ccn2)cn1`, the IC50 against Genome polyprotein [1] is above 100 µM; against Genome polyprotein [2], above 99.5 µM.

Consider `O=C(Nc1ccc2c(c1)CNC2)c1cc(Cl)cc2nn(C3COC3)cc12`, for which the IC50 against Genome polyprotein [1] is above 100 µM; at Genome polyprotein [2], above 99.5 µM.

On to `O=C(Nc1cc(-c2cccnc2)ccn1)c1cn2c(n1)CCC2`, for which the IC50 against Genome polyprotein [1] was above 100 µM; against Genome polyprotein [2], above 99.5 µM.

With `O=C(NCCOCC1CC1)[C@H](Nc1ccc2c(c1)CNC2)c1cc(Cl)cc(C2CC2)c1`, the IC50 was above 100 µM against Genome polyprotein [1] and above 99.5 µM at Genome polyprotein [2].

As to `CC1(c2nc(C(=O)Nc3cc(-c4cccnc4)ccn3)no2)CC1`, the IC50 is above 100 µM on Genome polyprotein [1] and above 99.5 µM on Genome polyprotein [2].

For the compound `COC(=O)c1cc(C(=O)Nc2ccc3c(c2)CNC3)cc2[nH]ccc12`, the IC50 at Genome polyprotein [1] is above 100 µM; at Genome polyprotein [2], above 99.5 µM.

Turning to `N#Cc1cc2c(cc1NC(=O)c1cc(F)cc3[nH]ncc13)CNC2`, the IC50 at Genome polyprotein [1] is 16.3 µM and 32 µM; against Genome polyprotein [2] it was 32.5 µM and 25.1 µM.

On to `Cc1c(C(=O)Nc2cc(-c3cccnc3)ccn2)cc(C#N)n1C`, for which the IC50 against Genome polyprotein [1] was 53.3 µM and 62.1 µM; at Genome polyprotein [2] it was 57.7 µM.

As for `CC1=C(c2cc(F)cc(C(=O)Nc3ccc4c(c3)CNC4)c2)CCCC1`, the results for the IC50 against Genome polyprotein [1] and against Genome polyprotein [2] were above 100 µM and above 99.5 µM, respectively.

In the case of `CCOc1cccc(-c2cccc(NC(=O)c3cc(C4CC4)n(C)c3C)n2)c1`, the IC50 is above 100 µM on Genome polyprotein [1] and above 99.5 µM against Genome polyprotein [2].

Take `Fc1cc(CNc2ccc3c(c2)CNC3)c2cc[nH]c2c1`: the results for the IC50 against Genome polyprotein [1] and at Genome polyprotein [2] were above 100 µM and above 99.5 µM, respectively.

Consider `O=C(Nc1ccc2c(c1)CNC2)c1cc(F)cc2[nH]c(-c3ccccc3F)nc12`, for which the IC50 against Genome polyprotein [1] was 18.5 µM and 33.8 µM; against Genome polyprotein [2], 7.91 µM and 4.23 µM.

`Cc1nn(C)c(C)c1[C@H]1CCCN1C(=O)Nc1ccc2c(c1)CNC2`: the IC50 at Genome polyprotein [1] is above 100 µM; at Genome polyprotein [2], above 99.5 µM.

For the compound `CCc1cccc(-c2nc3c(C(=O)Nc4ccc5c(c4)CNC5)cc(F)cc3[nH]2)c1`, the IC50 is 88.9 µM and > 100 µM on Genome polyprotein [1]; 14.5 µM and 7.53 µM against Genome polyprotein [2].

As to `O=C(Nc1ccc2c(c1)CNC2)c1cc(F)cc2[nH]c(-c3ccc(F)cc3)nc12`, the 50% inhibitory concentration (IC50) at Genome polyprotein [1] is 9.17 µM and 43.9 µM; on Genome polyprotein [2], 4.84 µM and 4.4 µM.

Regarding `O=C(O)CCCc1cc(NC(=O)c2cc(F)cc3[nH]ncc23)cc2c1CNC2`, the IC50 on Genome polyprotein [1] is 48.7 µM; at Genome polyprotein [2], above 99.5 µM.

As for `CC(C)n1ncc2c(C(=O)Nc3ccc4c(c3)CNC4)cc(Cl)cc21`, the IC50 against Genome polyprotein [1] is above 100 µM; on Genome polyprotein [2], above 99.5 µM.

Consider `Cc1ccc(NC(=O)c2cc(C3CC3)n(C)c2C)cc1-c1cccnc1`, for which the results for the half-inhibitory concentration (IC50) at Genome polyprotein [1] and against Genome polyprotein [2] were above 100 µM and above 99.5 µM, respectively.

As to `O=C(Nc1ccc2c(c1)CNC2)c1cc(Cl)cc2c1cnn2C1CCOCC1`, the IC50 against Genome polyprotein [1] is above 100 µM; against Genome polyprotein [2], above 99.5 µM.

Regarding `C=CC[C@H]1NCc2cc(N[C@H](C(=O)NCC(F)F)c3cc(Cl)cc(C4CC4)c3)ccc21`, the IC50 is above 100 µM on Genome polyprotein [1] and above 99.5 µM against Genome polyprotein [2].

Take `COc1cc(-c2cc(NC(=O)c3cc(F)cc4[nH]ncc34)cc3c2CNC3)ccn1`: the concentration for half-maximal inhibition (IC50) against Genome polyprotein [1] was 29 µM and 73.2 µM; at Genome polyprotein [2], 42.4 µM and 32.7 µM.

`COCCN1C(=O)CCc2cc(NC(=O)c3cc(C4CC4)n(C)c3C)ccc21`: the IC50 on Genome polyprotein [1] was above 100 µM; against Genome polyprotein [2] it was above 99.5 µM.

On to `O=C(Nc1cc(-c2cccnc2)ccn1)c1cnn2c1CCCC2`, for which the IC50 at Genome polyprotein [1] is 16.5 µM and 19.7 µM; on Genome polyprotein [2], 18 µM and 13.8 µM.

Regarding `Cc1c(C(=O)Nc2cccc(Cn3ccccc3=O)c2)cc(C2CC2)n1C`, the results for the half-maximal inhibitory concentration (IC50) against Genome polyprotein [1] and on Genome polyprotein [2] were above 100 µM and above 99.5 µM, respectively.

On to `CC(C)(c1nc2c(C(=O)Nc3ccc4c(c3)CNC4)cc(F)cc2[nH]1)S(C)(=O)=O`, for which the IC50 against Genome polyprotein [1] is 34.3 µM and 51.7 µM; on Genome polyprotein [2], 33.6 µM and 26.3 µM.

Take `CC(C)n1cc2c(C(=O)Nc3ccc4c(c3)CNC4)cc(Cl)cc2n1`: the IC50 at Genome polyprotein [1] was above 100 µM; on Genome polyprotein [2], above 99.5 µM.

As for `Cc1c(C(=O)Nc2cccc(C(=O)NC3CC3)c2)cc(C2CC2)n1C`, the results for the IC50 on Genome polyprotein [1] and against Genome polyprotein [2] were above 100 µM and above 99.5 µM, respectively.

For the compound `NCCc1csc2cc(C(=O)Nc3ccc4c(c3)CNC4)ccc12`, the IC50 against Genome polyprotein [1] is above 100 µM; at Genome polyprotein [2], above 99.5 µM.

Regarding `O=C(Nc1ccc2c(c1)CN[C@H]2C[C@H](O)CO)c1cc(Cl)cc2[nH]ncc12`, the IC50 is 80.2 µM against Genome polyprotein [1] and above 99.5 µM on Genome polyprotein [2].

In the case of `Cc1c(C(=O)Nc2cc(C#N)cn(C)c2=O)cc(C2CC2)n1C`, the IC50 is above 100 µM against Genome polyprotein [1] and above 99.5 µM against Genome polyprotein [2].

For `Cn1c(=O)[nH]c2cc(C(=O)Nc3ccc4c(c3)CNC4)cc(Br)c21`, the IC50 against Genome polyprotein [1] is 60 µM and 52.9 µM; against Genome polyprotein [2] it was above 99.5 µM.

For `O=C(Nc1cc(-c2cccnc2)ccn1)c1cc(C2CC2)oc1C1CC1`, the IC50 against Genome polyprotein [1] is above 100 µM; against Genome polyprotein [2], above 99.5 µM.

Turning to `O=C(Nc1cc2c(c(C3=CCS(=O)(=O)CC3)c1)CNC2)c1cc(F)cc2[nH]ncc12`, the IC50 against Genome polyprotein [1] was 34.6 µM and 46.6 µM; against Genome polyprotein [2], 41.1 µM and 29.7 µM.

In the case of `O=C(Nc1cc(-c2cccnc2)ccn1)c1sc2c(c1Br)CNC2`, the IC50 against Genome polyprotein [1] was above 100 µM; against Genome polyprotein [2] it was above 99.5 µM.

`Cn1ncc(C(=O)Nc2cc(-c3cccnc3)ccn2)c1C1CC1`: the IC50 was above 100 µM on Genome polyprotein [1] and above 99.5 µM at Genome polyprotein [2].

Take `O=C(Nc1cc2c(c(C3=CCOCC3)c1)CNC2)c1cc(F)cc2[nH]ncc12`: the IC50 was 27.2 µM and 45.2 µM against Genome polyprotein [1]; 29.7 µM and 19.8 µM on Genome polyprotein [2].
